Converted amounts (≈) assume the structure as drawn.
Columns and labels:
Assay type in all cases: functional
Klebsiella oxytoca [1] = experiment: Antibacterial activity against Klebsiella oxytoca by CLSI M100-S17 method
Acinetobacter baumannii [2] = experiment: Antibacterial activity against Acinetobacter baumannii assessed as intermediate isolates by CLSI M100-S17 method
Enterobacter cloacae [3] = experiment: Antibacterial activity against Enterobacter cloacae by CLSI M100-S17 method
Serratia marcescens [4] = experiment: Antibacterial activity against Serratia marcescens assessed as intermediate isolates by CLSI M100-S17 method
Acinetobacter baumannii [5] = experiment: Antibacterial activity against Acinetobacter baumannii assessed as resistant isolates by CLSI M100-S17 method
Enterobacter cloacae [6] = experiment: Antibacterial activity against Enterobacter cloacae assessed as intermediate isolates by CLSI M100-S17 method
Klebsiella pneumoniae [7] = experiment: Antibacterial activity against Klebsiella pneumoniae by CLSI M100-S17 method
Escherichia coli [8] = experiment: Antibacterial activity against Escherichia coli by CLSI M100-S17 method
Klebsiella oxytoca [9] = experiment: Antibacterial activity against Klebsiella oxytoca assessed as susceptible isolates by CLSI M100-S17 method
Klebsiella pneumoniae [10] = experiment: Antibacterial activity against Klebsiella pneumoniae assessed as susceptible isolates by CLSI M100-S17 method
Pseudomonas aeruginosa [11] = experiment: Antibacterial activity against Pseudomonas aeruginosa assessed as susceptible isolates by CLSI M100-S17 method
Proteus mirabilis [12] = experiment: Antibacterial activity against Proteus mirabilis assessed as susceptible isolates by CLSI M100-S17 method
Serratia marcescens [13] = experiment: Antibacterial activity against Serratia marcescens by CLSI M100-S17 method
Escherichia coli [14] = experiment: Antibacterial activity against Escherichia coli assessed as intermediate isolates by CLSI M100-S17 method
Pseudomonas aeruginosa [15] = experiment: Antibacterial activity against Pseudomonas aeruginosa assessed as intermediate isolates by CLSI M100-S17 method
Acinetobacter baumannii [16] = experiment: Antibacterial activity against Acinetobacter baumannii by CLSI M100-S17 method
Pseudomonas aeruginosa [17] = experiment: Antibacterial activity against Pseudomonas aeruginosa assessed as resistant isolates by CLSI M100-S17 method
Moraxella catarrhalis = experiment: Antibacterial activity against Moraxella catarrhalis by CLSI M100-S17 method
[18] = tested on: Stenotrophomonas maltophilia; experiment: Antibacterial activity against Stenotrophomonas maltophilia by CLSI M100-S17 method
Klebsiella oxytoca [19] = experiment: Antibacterial activity against Klebsiella oxytoca assessed as intermediate isolates by CLSI M100-S17 method
Enterobacter cloacae [20] = experiment: Antibacterial activity against Enterobacter cloacae assessed as susceptible isolates by CLSI M100-S17 method
Escherichia coli [21] = experiment: Antibacterial activity against Escherichia coli assessed as susceptible isolates by CLSI M100-S17 method
Proteus mirabilis [22] = experiment: Antibacterial activity against Proteus mirabilis by CLSI M100-S17 method
Klebsiella pneumoniae [23] = experiment: Antibacterial activity against Klebsiella pneumoniae assessed as intermediate isolates by CLSI M100-S17 method
Proteus mirabilis [24] = experiment: Antibacterial activity against Proteus mirabilis assessed as intermediate isolates by CLSI M100-S17 method
Acinetobacter baumannii [25] = experiment: Antibacterial activity against Acinetobacter baumannii assessed as susceptible isolates by CLSI M100-S17 method
Pseudomonas aeruginosa [26] = experiment: Antibacterial activity against Pseudomonas aeruginosa by CLSI M100-S17 method
Serratia marcescens [27] = experiment: Antibacterial activity against Serratia marcescens assessed as susceptible isolates by CLSI M100-S17 method

C[C@@H](O)[C@H]1C(=O)N2C(C(=O)O)=C(S[C@@H]3CN[C@H](C(=O)N(C)C)C3)[C@H](C)[C@H]12 [MEROPENEM]
MIC50 (Klebsiella oxytoca [1]): ≤ 0.06 mg/L
MIC90 (Klebsiella oxytoca [1]): ≤ 0.06 mg/L
Activity (Acinetobacter baumannii [2]): 0%
MIC50 (Enterobacter cloacae [3]): ≤ 0.06 mg/L
MIC90 (Enterobacter cloacae [3]): ≤ 0.06 mg/L
Activity (Serratia marcescens [4]): 0%
Activity (Acinetobacter baumannii [5]): 8%
Activity (Enterobacter cloacae [6]): 0%
MIC50 (Klebsiella pneumoniae [7]): ≤ 0.06 mg/L
MIC90 (Klebsiella pneumoniae [7]): ≤ 0.06 mg/L
MIC50 (Escherichia coli [8]): ≤ 0.06 mg/L
MIC90 (Escherichia coli [8]): ≤ 0.06 mg/L
Activity (Klebsiella oxytoca [9]): 100%
Activity (Klebsiella pneumoniae [10]): 100%
Activity (Pseudomonas aeruginosa [11]): 87.8%
Activity (Proteus mirabilis [12]): 100%
MIC50 (Serratia marcescens [13]): ≤ 0.06 mg/L
MIC90 (Serratia marcescens [13]): ≤ 0.06 mg/L
Activity (Escherichia coli [14]): 0%
Activity (Pseudomonas aeruginosa [15]): 4.1%
MIC50 (Acinetobacter baumannii [16]): 0.5 mg/L (≈ 1.3 µM)
MIC90 (Acinetobacter baumannii [16]): 4 mg/L (≈ 10.4 µM)
Activity (Pseudomonas aeruginosa [17]): 8.1%
MIC (Moraxella catarrhalis): ≤ 0.06 mg/L
MIC50 (Moraxella catarrhalis): ≤ 0.06 mg/L
MIC90 (Moraxella catarrhalis): ≤ 0.06 mg/L
MIC50 [18]: > 64 mg/L
MIC90 [18]: > 64 mg/L
Activity (Klebsiella oxytoca [19]): 0%
Activity (Enterobacter cloacae [20]): 100%
Activity (Escherichia coli [21]): 100%
MIC50 (Proteus mirabilis [22]): ≤ 0.06 mg/L
MIC90 (Proteus mirabilis [22]): ≤ 0.06 mg/L
Activity (Klebsiella pneumoniae [23]): 0%
Activity (Proteus mirabilis [24]): 0%
Activity (Acinetobacter baumannii [25]): 92%
MIC50 (Pseudomonas aeruginosa [26]): 0.5 mg/L (≈ 1.3 µM)
MIC90 (Pseudomonas aeruginosa [26]): 8 mg/L (≈ 20.9 µM)
Activity (Serratia marcescens [27]): 100%

— ChEMBL document CHEMBL1649552 (2009)
